Measurements reported in article PMC4760428 (Angewandte Chemie (International Ed. in English), 2016).
Peptide text beside a SMILES is read from it.

Target: WT cyclophilin (Homo sapiens, UniProt P62937)
Experiment: FRET equilibrium binding to wild-type cyclophilin

WT cyclophilin, sequence (P62937 whole entry): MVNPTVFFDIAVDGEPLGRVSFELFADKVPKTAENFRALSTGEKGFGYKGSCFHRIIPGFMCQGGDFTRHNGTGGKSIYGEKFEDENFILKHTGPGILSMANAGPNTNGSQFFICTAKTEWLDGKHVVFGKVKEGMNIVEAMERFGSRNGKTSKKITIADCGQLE

Kd: 164 ± 32 µM
Structure (SMILES): C[C@H](NS(=O)(=O)c1cccc2c(N(C)C)cccc12)C(=O)N[C@@H](C)C(=O)N1CCC[C@H]1C(=O)N[C@@H](Cc1ccccc1)C(=O)O [WT peptide] (HELM PEPTIDE1{[CN(C)c1cccc2c(S(=O)(=O)[*:2])cccc12].A.A.P.F}$$$$V2.0)
